The target in series [1] is T1, human liver-glucuronidase (hβG) (Homo sapiens, UniProt P08236).
T1 sequence (P08236 23-651): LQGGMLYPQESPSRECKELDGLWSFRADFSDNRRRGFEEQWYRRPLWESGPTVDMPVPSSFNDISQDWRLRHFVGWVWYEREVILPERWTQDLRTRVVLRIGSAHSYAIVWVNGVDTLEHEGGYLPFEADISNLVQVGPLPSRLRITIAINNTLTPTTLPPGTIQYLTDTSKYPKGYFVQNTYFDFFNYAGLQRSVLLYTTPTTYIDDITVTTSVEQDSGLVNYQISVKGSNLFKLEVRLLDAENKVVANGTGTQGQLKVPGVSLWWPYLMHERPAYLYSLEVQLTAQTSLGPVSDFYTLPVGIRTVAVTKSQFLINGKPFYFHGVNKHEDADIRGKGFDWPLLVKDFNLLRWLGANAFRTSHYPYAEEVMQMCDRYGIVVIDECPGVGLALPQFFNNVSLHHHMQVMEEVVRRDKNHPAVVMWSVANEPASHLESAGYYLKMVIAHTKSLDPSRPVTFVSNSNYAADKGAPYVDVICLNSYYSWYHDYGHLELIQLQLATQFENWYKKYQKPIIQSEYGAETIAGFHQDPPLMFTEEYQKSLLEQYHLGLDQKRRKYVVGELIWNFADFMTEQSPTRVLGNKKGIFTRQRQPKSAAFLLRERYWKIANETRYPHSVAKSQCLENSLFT
The series can be described thus: Inhibition of purified recombinant hβG activity (pNPG substrate, OD420). As to conditions: 10 μM, purified recombinant hβG, pNPG, means ± S.D. of at least three separate experiments; for remaining activity at 10 µM: read-out: Percent activity of human liver-glucuronidase at 10 μM (%). In kind it is biochemical. As for the experimental part:
(§1) The pyrazolo[4,3-c]quinoline derivatives were examined for their inhibition against eβG or hβG activity. Purified recombinant eβG or hβG proteins were incubated with serial dilution of the inhibitors, respectively. The βG activity was determined by color development of a βG substrate, pNPG. The hydrolysis product of pNPG, PNP was measured by OD420.

In series [2] the target is E. coli β-glucuronidase (eβG) (Escherichia coli, UniProt P05804). The series can be described thus: Inhibition of purified recombinant eβG activity (pNPG substrate, OD420). Type of series: biochemical. To be noted: for remaining activity at 10 µM: read-out: Percent activity of E. coli-glucuronidase at 10 μM (%). As for the experimental part:
as §1

Counter-ions that a name gives are not always drawn.

The record followed here is patent US11052072B2, “Pyrazolo[4,3-C] quinoline derivatives for inhibition of β-glucuronidase” (Kaohsiung Medical University, priority 2015, dated 2021).

What is called melting point is the temperature of the solid-liquid transition.

E. coli β-glucuronidase (eβG), sequence (P05804 whole entry): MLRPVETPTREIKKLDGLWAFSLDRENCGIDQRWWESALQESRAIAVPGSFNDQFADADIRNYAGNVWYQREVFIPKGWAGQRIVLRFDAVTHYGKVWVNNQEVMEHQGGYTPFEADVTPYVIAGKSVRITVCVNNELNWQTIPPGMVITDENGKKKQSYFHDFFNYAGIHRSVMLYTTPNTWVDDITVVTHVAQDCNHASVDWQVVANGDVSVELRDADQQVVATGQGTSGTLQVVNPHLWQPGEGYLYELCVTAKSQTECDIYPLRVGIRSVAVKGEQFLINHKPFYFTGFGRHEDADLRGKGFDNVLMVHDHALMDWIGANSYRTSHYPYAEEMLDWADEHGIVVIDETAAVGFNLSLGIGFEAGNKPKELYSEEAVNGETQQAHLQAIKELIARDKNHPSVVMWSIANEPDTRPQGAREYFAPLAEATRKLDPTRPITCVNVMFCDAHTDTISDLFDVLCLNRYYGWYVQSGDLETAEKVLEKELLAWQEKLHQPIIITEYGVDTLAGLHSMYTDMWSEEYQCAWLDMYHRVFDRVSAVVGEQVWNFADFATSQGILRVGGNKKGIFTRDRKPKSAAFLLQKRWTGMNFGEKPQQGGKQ

`Cc1ccc(Nc2nc3cc(F)ccc3c3[nH]nc(N)c23)cc1` (as salt: salt) [Compound 9, 7-Fluoro-N^4-(p-tolyl)-1H-pyrazolo[4,3-c]quinoline-3,4-diamine] showed a melting point of 246 to 247 °C.
Turning to `Nc1n[nH]c2c1c(Nc1ccc(Cl)cc1)nc1ccc(Cl)cc12` (as salt: salt) [Compound 10, 8-Chloro-N^4-(4-chlorophenyl)-1H-pyrazolo[4,3-c]quinoline-3,4-diamine], the melting point was 270 to 272 °C.
The same measure, in the same setting: next, `Cc1ccc(Nc2nc3ccc(Cl)cc3c3[nH]nc(N)c23)cc1` (as salt: salt) [Compound 11, 8-Chloro-N^4-(p-tolyl)-1H-pyrazolo[4,3-c]quinoline-3,4-diamine]: 261 °C.
`CSc1ccc(Nc2nc3ccccc3c3[nH]nc(N)c23)cc1` (as salt: salt) [Compound 20, 3-Amino-4-(4-methylthiophenylamino)-1H-pyrazolo[4,3-c]quinoline] registered a melting point of 269 to 271 °C.
The same measure, in the same setting: next, `Nc1n[nH]c2c1c(Nc1ccc([N+](=O)[O-])cc1)nc1ccccc12` (as salt: salt) [Compound 21, 3-Amino-4-(4-nitrophenylamino)-1H-pyrazolo[4,3-c]quinoline]: 303 to 305 °C; `Nc1n[nH]c2c1c(Nc1ccc(C(=O)O)cc1)nc1ccccc12` (as salt: salt) [Compound 22, 4-(3-Amino-1H-pyrazolo[4,3-c]quinolin-4-ylamino)benzoic acid]: 362 to 364 °C.
The same measure, in the same setting: next, `CC(=O)c1ccc(Nc2nc3ccccc3c3[nH]nc(N)c23)cc1` (as salt: salt) [Compound 23, 3-Amino-4-(4-acetylphenylamino)-1H-pyrazolo[4,3-c]quinoline]: 249 to 251 °C; `Nc1n[nH]c2c1c(Nc1cccc(O)c1)nc1ccccc12` (as salt: salt) [Compound 24, 3-Amino-4-(3-hydroxyphenylamino)-1H-pyrazolo[4,3-c]quinoline]: 319 to 321 °C; `Cc1cccc(Nc2nc3ccccc3c3[nH]nc(N)c23)c1` (as salt: salt) [Compound 25, N^4-(m-Tolyl)-1H-pyrazolo[4,3-c]quinoline-3,4-diamine]: 281 to 282 °C.
Consider `Cc1cccc2c1nc(Nc1ccc(Cl)cc1)c1c(N)n[nH]c12` [Compound 6, N^4-(4-Chlorophenyl)-6-methyl-1H-pyrazolo[4,3-c]quinoline-3,4-diamine], for which the melting point fell in the range of 249 to 250 °C. In addition, the remaining activity at 10 µM in series [1] was determined as 78.5 ± 0.71%. The remaining activity at 10 µM in series [2] amounted to 6 ± 1%.
For `Cc1ccc(Nc2nc3c(C)cccc3c3[nH]nc(N)c23)cc1` [Compound 7, 6-Methyl-N^4-(p-tolyl)-1H-pyrazolo[4,3-c]quinoline-3,4-diamine], in that order: 270 to 271 °C, 74 ± 1% and 3 ± 1%.
For `Nc1n[nH]c2c1c(Nc1ccc(Cl)cc1)nc1cc(F)ccc12` [Compound 8, N^4-(4-Chlorophenyl)-7-fluoro-1H-pyrazolo[4,3-c]quinoline-3,4-diamine], in that order: 254 °C (dec.), 83.5 ± 0.71% and 4 ± 1%.
`Cc1ccc(Nc2nc3cc(F)ccc3c3[nH]nc(N)c23)cc1` [Compound 9, 7-Fluoro-N^4-(p-tolyl)-1H-pyrazolo[4,3-c]quinoline-3,4-diamine]: the remaining activity at 10 µM in series [1] was found to be 81.5 ± 0.71%; in series [2], 4 ± 1%.
Regarding `Nc1n[nH]c2c1c(Nc1ccc(Cl)cc1)nc1ccc(Cl)cc12` [Compound 10, 8-Chloro-N^4-(4-chlorophenyl)-1H-pyrazolo[4,3-c]quinoline-3,4-diamine], the remaining activity at 10 µM in series [1] is 77 ± 1.41%; in series [2], 3 ± 1%.
The like results for `Cc1ccc(Nc2nc3ccc(Cl)cc3c3[nH]nc(N)c23)cc1` [Compound 11, 8-Chloro-N^4-(p-tolyl)-1H-pyrazolo[4,3-c]quinoline-3,4-diamine] were, in that order, 80.5 ± 2.12% and 3 ± 1%.
Regarding `Nc1n[nH]c2c1c(Nc1ccc(Cl)cc1)nc1ccc(Br)cc12` [Compound 12, 8-Bromo-N^4-(4-chlorophenyl)-1H-pyrazolo[4,3-c]quinoline-3,4-diamine], the melting point is 264 °C (dec.). Besides, the remaining activity at 10 µM in series [1] stood at 79.3 ± 2.63%. In addition, the remaining activity at 10 µM in series [2] is 5 ± 1%.
In the case of `Cc1ccc(Nc2nc3ccc(Br)cc3c3[nH]nc(N)c23)cc1` [Compound 13, S-Bromo-N^4-(p-tolyl)-1H-pyrazolo[4,3-c]quinoline-3,4-diamine], the “Percent activity of human liver-glucuronidase at 10 μM (%)” value in series [1] was 80.21 ± 2.14%. The “Percent activity of E. coli-glucuronidase at 10 μM (%)” value in series [2] (10 μM, purified recombinant eβG, pNPG, means ± S.D. of at least three separate experiments) is 4 ± 1%.
With `Nc1n[nH]c2c1c(Nc1ccccc1)nc1ccccc12` [Compound 14, 3-Amino-4-anilino-1H-pyrazolo[4,3-c]quinoline], the melting point fell in the range of 256 to 258 °C. Also, in series [1], the remaining activity at 10 µM stood at 105.5 ± 0.71%. Further, the remaining activity at 10 µM in series [2] turned out to be 4 ± 1%.
For `Nc1n[nH]c2c1c(Nc1ccc(O)cc1)nc1ccccc12` [Compound 15, 3-Amino-4-(4-hydroxyphenylamino)-1H-pyrazolo[4,3-c]quinoline], in that order: 347 to 349 °C, 95 ± 4.24% and 7 ± 1%.
`Nc1ccc(Nc2nc3ccccc3c3[nH]nc(N)c23)cc1` [Compound 16, 3-Amino-4-(4-aminophenylamino)-1H-pyrazolo[4,3-c]quinoline] yielded a melting point of 355 to 356 °C. Also, the remaining activity at 10 µM in series [1] came out at 82.5 ± 3.54%. Moreover, in series [2], the remaining activity at 10 µM amounted to 8 ± 1%.
`Nc1n[nH]c2c1c(Nc1ccc(C(F)(F)F)cc1)nc1ccccc12` [Compound 18, 3-Amino-4-(4-trifluoromethylphenylamino)-1H-pyrazolo[4,3-c]quinoline] showed a melting point of 251 to 252 °C. Moreover, the remaining activity at 10 µM in series [1] amounted to 106 ± 2.83%. Further, the remaining activity at 10 µM in series [2] stood at 4.5 ± 0.71%.
In turn, `COc1ccc(Nc2nc3ccccc3c3[nH]nc(N)c23)cc1` [Compound 19, 3-Amino-4-(4-methoxyphenylamino)-1H-pyrazolo[4,3-c]quinoline] registered a melting point of 228 to 230 °C. Further, the remaining activity at 10 µM in series [1] is 102 ± 2.12%. For the same compound, the remaining activity at 10 µM in series [2] was 3 ± 1%.
Regarding `CSc1ccc(Nc2nc3ccccc3c3[nH]nc(N)c23)cc1` [Compound 20, 3-Amino-4-(4-methylthiophenylamino)-1H-pyrazolo[4,3-c]quinoline], the remaining activity at 10 µM in series [1] came to 108 ± 3.54%; in series [2] it was 5 ± 1.41%.
For `Nc1n[nH]c2c1c(Nc1ccc([N+](=O)[O-])cc1)nc1ccccc12` [Compound 21, 3-Amino-4-(4-nitrophenylamino)-1H-pyrazolo[4,3-c]quinoline], in that order: 90.86 ± 0.32% and 46.5 ± 4.95%.
With `Nc1n[nH]c2c1c(Nc1ccc(C(=O)O)cc1)nc1ccccc12` [Compound 22, 4-(3-Amino-1H-pyrazolo[4,3-c]quinolin-4-ylamino)benzoic acid], the remaining activity at 10 µM in series [1] was 95 ± 4.24%; in series [2], 15.5 ± 1.71%.
For `CC(=O)c1ccc(Nc2nc3ccccc3c3[nH]nc(N)c23)cc1` [Compound 23, 3-Amino-4-(4-acetylphenylamino)-1H-pyrazolo[4,3-c]quinoline], in that order: 104 ± 1.41% and 3 ± 1%.
Regarding `Nc1n[nH]c2c1c(Nc1cccc(O)c1)nc1ccccc12` [Compound 24, 3-Amino-4-(3-hydroxyphenylamino)-1H-pyrazolo[4,3-c]quinoline], the remaining activity at 10 µM in series [1] came out at 105 ± 1.41%; in series [2], 13.5 ± 0.71%.
For `Cc1cccc(Nc2nc3ccccc3c3[nH]nc(N)c23)c1` [Compound 25, N^4-(m-Tolyl)-1H-pyrazolo[4,3-c]quinoline-3,4-diamine], in that order: 102 ± 2.08% and 69.9 ± 0.02%.
The like results for `O=C(Nc1ccccc1)Nc1n[nH]c2c1c(=O)[nH]c1ccccc12` [Compound 34, 1-(4-oxo-4,5-dihydro-1H-pyrazolo[4,3-c]quinolin-3-yl)-3-phenylurea] were, in that order, 82 ± 1.41% and 86 ± 1%.
Consider `CCOc1ccc(NC(=S)N(CCO)Cc2cc3cc(C)cc(C)c3[nH]c2=O)cc1` [βG-Inh, 1-((6,8-Dimethyl-2-oxo-1,2-dihydroquinolin-3-yl)methyl)-3-(4-ethoxyphenyl)-1-(2-hydroxyethyl) thiourea, reference compound], for which the remaining activity at 10 µM in series [2] is 3 ± 1%.
